# Values of other authors, collected in patent US20180353175A1, “Surgical Fastener with Broad Spectrum MMP Inhibitors” (Ethicon LLC, priority 2017, published 2018).
# Read-outs that look alike come from different tables or passages of the source. Square brackets hold non-standard residues; d marks the D form. Peptide text beside a SMILES is read from it. * marks the point of attachment. 4Abz = Nc1ccc(C(=O)O)cc1; NHOH = ON*
# T1: MMP1 (Homo sapiens, UniProt P03956)
# T1 sequence (P03956 100-469): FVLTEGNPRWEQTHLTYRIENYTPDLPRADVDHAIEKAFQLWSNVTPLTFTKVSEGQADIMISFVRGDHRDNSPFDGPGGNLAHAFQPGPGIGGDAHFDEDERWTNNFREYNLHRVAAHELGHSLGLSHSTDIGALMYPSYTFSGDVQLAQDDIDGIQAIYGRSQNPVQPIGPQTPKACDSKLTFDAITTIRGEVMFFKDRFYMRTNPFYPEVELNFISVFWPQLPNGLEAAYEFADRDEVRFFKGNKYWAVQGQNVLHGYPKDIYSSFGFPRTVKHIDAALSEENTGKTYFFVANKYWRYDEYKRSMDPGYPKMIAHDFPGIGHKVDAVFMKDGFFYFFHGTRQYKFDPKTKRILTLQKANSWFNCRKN
# T2: MMP2 (Homo sapiens, UniProt P08253)
# T2 sequence (P08253 110-660): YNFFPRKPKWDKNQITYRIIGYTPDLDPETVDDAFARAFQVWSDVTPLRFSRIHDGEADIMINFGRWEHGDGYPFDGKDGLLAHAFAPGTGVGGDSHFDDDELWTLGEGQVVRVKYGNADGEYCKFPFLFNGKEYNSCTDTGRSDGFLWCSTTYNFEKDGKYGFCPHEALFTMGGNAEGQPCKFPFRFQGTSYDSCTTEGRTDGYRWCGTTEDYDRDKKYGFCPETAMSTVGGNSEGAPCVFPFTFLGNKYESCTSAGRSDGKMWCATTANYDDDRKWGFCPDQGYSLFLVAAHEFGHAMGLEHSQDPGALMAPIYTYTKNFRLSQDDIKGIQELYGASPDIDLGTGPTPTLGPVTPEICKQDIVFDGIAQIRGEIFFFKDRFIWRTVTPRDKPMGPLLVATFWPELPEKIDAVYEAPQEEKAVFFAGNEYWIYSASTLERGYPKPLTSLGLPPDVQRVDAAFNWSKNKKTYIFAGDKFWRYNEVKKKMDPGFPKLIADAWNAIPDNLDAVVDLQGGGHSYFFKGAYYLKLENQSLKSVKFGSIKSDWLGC
# T3: MMP7 (Homo sapiens, UniProt P09237)
# T3 sequence (P09237 95-267): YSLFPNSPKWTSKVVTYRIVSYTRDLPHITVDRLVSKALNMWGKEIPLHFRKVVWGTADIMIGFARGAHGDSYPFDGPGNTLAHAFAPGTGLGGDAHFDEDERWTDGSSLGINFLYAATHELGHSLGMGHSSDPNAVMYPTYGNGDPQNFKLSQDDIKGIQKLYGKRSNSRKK
# Key:
# MMP1 = molecular target: T1, MMP1
# MMP3 = MMP3 (Homo sapiens, UniProt P08254)
# MMP2 = molecular target: T2, MMP2; conditions: for IC50: read-out: IC50 MMP2
# MMP7 = molecular target: T3, MMP7; conditions: for IC50: read-out: IC50 MMP7
# MMP9 = MMP9 (Homo sapiens, UniProt P14780); conditions: for IC50: read-out: IC50 MMP9
# MMP12 = MMP12 (Homo sapiens, UniProt P39900)
# MMP13 = MMP13 (Homo sapiens, UniProt P45452)
# MMP14 = MMP14 (Homo sapiens, UniProt P50281)
# MMP8 = MMP8 (Homo sapiens, UniProt P22894)
# [1] = molecular target: TACE (TNF-α-converting enzyme) (Homo sapiens, UniProt P78536)
# [2] = read-out: IC50 MMP8 (converted)
# Chain of MMP3 (P08254 100-477, species assumed): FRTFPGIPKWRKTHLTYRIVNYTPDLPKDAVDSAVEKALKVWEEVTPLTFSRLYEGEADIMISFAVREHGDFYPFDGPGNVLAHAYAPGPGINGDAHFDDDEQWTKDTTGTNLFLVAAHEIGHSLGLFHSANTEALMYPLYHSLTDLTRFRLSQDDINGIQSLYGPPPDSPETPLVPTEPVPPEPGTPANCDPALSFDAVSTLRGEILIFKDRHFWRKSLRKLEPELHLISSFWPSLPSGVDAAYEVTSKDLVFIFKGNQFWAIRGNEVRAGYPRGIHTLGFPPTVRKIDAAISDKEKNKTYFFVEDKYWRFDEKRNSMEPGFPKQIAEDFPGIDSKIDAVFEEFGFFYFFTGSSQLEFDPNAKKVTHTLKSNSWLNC
# Chain of MMP9 (P14780 94-707, species assumed): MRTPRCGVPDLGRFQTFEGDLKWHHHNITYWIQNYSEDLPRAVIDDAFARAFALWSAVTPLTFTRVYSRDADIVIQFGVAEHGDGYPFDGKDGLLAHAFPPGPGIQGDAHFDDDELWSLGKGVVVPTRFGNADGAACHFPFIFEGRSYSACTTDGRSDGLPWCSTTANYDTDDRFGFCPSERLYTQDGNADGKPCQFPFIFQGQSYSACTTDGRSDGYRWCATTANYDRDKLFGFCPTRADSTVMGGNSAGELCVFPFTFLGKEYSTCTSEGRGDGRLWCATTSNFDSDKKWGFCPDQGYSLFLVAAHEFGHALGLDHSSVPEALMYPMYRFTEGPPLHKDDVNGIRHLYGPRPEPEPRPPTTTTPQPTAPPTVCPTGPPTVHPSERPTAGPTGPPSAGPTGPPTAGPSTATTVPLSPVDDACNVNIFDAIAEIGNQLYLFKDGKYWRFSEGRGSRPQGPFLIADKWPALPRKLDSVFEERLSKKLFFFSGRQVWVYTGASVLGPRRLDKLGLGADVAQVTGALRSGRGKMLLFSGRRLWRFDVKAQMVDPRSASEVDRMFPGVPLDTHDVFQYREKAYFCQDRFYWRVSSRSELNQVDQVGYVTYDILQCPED
# Chain of MMP8 (P22894 101-467, species assumed): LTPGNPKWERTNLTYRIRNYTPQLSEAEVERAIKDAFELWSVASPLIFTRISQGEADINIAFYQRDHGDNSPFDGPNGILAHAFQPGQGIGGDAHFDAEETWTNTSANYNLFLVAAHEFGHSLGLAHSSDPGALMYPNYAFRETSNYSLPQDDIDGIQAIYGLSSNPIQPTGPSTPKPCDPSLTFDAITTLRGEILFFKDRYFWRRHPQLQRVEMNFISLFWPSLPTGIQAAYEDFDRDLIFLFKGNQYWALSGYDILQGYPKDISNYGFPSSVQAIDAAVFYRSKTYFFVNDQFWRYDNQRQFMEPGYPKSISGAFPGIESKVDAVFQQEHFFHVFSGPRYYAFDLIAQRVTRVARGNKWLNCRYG
# Chain of MMP12 (P39900 106-470, species assumed): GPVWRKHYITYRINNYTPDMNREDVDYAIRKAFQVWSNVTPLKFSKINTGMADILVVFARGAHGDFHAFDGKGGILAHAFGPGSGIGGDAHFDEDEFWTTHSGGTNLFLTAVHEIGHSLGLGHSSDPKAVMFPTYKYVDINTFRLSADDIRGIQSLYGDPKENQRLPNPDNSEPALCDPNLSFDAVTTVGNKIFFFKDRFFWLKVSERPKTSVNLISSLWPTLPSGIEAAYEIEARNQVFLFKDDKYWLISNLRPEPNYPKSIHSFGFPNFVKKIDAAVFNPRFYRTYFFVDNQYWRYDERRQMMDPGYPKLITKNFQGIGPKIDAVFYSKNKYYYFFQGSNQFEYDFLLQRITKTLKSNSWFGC
# Chain of TACE (TNF-α-converting enzyme) (P78536 215-824, species assumed): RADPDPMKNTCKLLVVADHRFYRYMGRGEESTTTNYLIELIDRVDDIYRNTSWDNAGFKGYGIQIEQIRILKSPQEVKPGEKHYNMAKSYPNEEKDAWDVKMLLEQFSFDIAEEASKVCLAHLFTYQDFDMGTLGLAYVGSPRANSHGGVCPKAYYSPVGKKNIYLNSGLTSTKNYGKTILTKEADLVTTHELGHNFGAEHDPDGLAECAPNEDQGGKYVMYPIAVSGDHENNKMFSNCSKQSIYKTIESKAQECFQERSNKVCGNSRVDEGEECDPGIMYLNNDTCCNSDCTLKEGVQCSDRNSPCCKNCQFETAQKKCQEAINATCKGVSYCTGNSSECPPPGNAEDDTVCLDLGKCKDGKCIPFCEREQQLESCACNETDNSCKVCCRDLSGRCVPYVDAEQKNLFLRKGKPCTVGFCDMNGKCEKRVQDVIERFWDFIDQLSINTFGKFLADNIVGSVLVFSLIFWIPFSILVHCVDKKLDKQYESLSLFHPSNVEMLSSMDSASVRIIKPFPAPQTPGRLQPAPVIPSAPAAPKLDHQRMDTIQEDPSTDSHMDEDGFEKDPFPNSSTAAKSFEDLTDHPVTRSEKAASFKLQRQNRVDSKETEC
molecule,measurement,setting,value
7-dimethylamino-6-dimethyl-6-deoxytetracycline [Minocycline],inhibition of MMP1 (in words),MMP1,effective for the inhibition
same,IC50,MMP3,290000 nM
same,inhibition of MMP2 (in words),MMP2,effective for the inhibition
same,IC50,MMP7,125000 nM
same,IC50,MMP9,180000 nM
O=C(NO)C1(S(=O)(=O)c2ccc(Oc3ccc(Cl)cc3)cc2)CCN(Cc2ccccc2)CC1 [239796-97-5],inhibition of MMP1 (in words),MMP1,suppress
CC1(C)NC(=O)N(C[C@@H](COc2ccc(-c3ccc(OC(F)(F)F)cc3)cc2)N(O)C=O)C1=O [ABT-770],inhibition of MMP2 (in words),MMP2,inhibits
same,inhibition of MMP9 (in words),MMP9,inhibits
C=CCN(C(=O)CCC(=O)N(O)CC(C)C)C(Cc1ccccc1)C(=O)NC (stereo not drawn) [BB-1101],IC50,MMP12,5 nM
same,IC50,MMP1,8 nM
same,IC50,MMP3,30 nM
same,IC50,MMP13,7 nM
same,IC50,MMP14,10 nM
same,IC50,MMP2,4 nM
same,IC50,MMP7,60 nM
same,IC50,MMP9,3 nM
same,IC50,MMP8; [2],3 nM
CNC(=O)[C@H](Cc1ccccc1)NC(=O)[C@H](CC(C)C)[C@H](CSc1cccs1)C(=O)NO [Batimastat],IC50,MMP7,6 nM
same,IC50,MMP9,1 nM
NC(=O)C1=C(O)CC2CC3Cc4cccc(O)c4C(=O)C3=C(O)C2(O)C1=O (stereo not drawn) [COL-3],IC50,MMP1,91600 nM
same,IC50,MMP13,808 nM
same,IC50,MMP8; [2],129000 nM
CN1C(=O)N(C[C@H](C(=O)NO)[C@@H](CC2CCCC2)C(=O)N2CCCCC2)C(=O)C1(C)C [Cipemastat],inhibition of MMP1 (in words),MMP1,can inhibit
same,inhibition of MMP3 (in words),MMP3,can inhibit
same,inhibition of MMP9 (in words),MMP9,can inhibit
C[C@H]1c2cccc(O)c2C(=O)C2=C(O)[C@]3(O)C(=O)C(C(N)=O)=C(O)[C@@H](N(C)C)[C@@H]3[C@@H](O)[C@@H]21 [Doxycycline],IC50,MMP1,> 400000 nM
same,IC50,MMP3,32000 nM
same,IC50,MMP13,2000 to 50000 nM
same,IC50,MMP2,56000 nM
same,IC50,MMP7,28000 nM
same,IC50,MMP8; [2],26000 to 50000 nM
"CC(C)C[C@@H](NC(=O)[C@@H]1CCCN1C(=O)CNC(=O)c1ccc(N)cc1)C(=O)N[C@H](C)C(=O)NO [FN-439, p-aminobenzoyl-Gly-Pro-D-Leu-D-Ala-NHOH] (H-[4Abz]GP[dL][dA]-{NHOH})",IC50,MMP1,1000 nM
same,IC50,MMP3,150000 nM
same,IC50,MMP9,30000 nM
same,IC50,MMP8; [2],1000 nM
COc1ccc(S(=O)(=O)N(Cc2cccnc2)[C@@H](C(=O)NO)C(C)C)cc1.Cl [MMI-270],inhibition of MMP2 (in words),MMP2,can inhibit
same,inhibition of MMP9 (in words),MMP9,can inhibit
same,inhibition of MMP8 (in words),MMP8,can inhibit
CCN(CC)Cc1cc(C)c(N(Cc2ccccc2)S(=O)(=O)c2ccc(OC)cc2)c(C(=O)NO)c1 [MMP9 inhibitor I],IC50,MMP1,1.05 nM
CNC(=O)[C@@H](NC(=O)[C@H](CC(C)C)[C@H](O)C(=O)NO)C(C)(C)C [Marimastat],IC50,MMP14,1.8 nM
CCOCOCC(CC(C)C(=O)NO)NC(=O)c1ccc(Oc2ccccc2)cc1 (stereo not drawn) [ONO-4817],Ki,MMP12,0.45 nM
same,IC50,MMP1,1.6 nM
same,Ki,MMP3,42 nM
same,Ki,MMP13,1.1 nM
same,Ki,MMP2,0.73 nM
same,Ki,MMP7,2.5 nM
same,IC50,MMP9,2.1 nM
same,Ki,MMP8,1.1 nM
CC1(C)SCCN(S(=O)(=O)c2ccc(Oc3ccncc3)cc2)[C@H]1C(=O)NO [Prinomastat],inhibition of MMP3 (in words),MMP3,specific selectivity
same,inhibition of MMP14 (in words),MMP14,specific selectivity
same,inhibition of MMP9 (in words),MMP9,specific selectivity
O=C(NO)C1(CS(=O)(=O)c2ccc(Oc3ccc(Cl)cc3)cc2)CCOCC1 [RS 130830],inhibition of MMP1 (in words),MMP1,suppress
O=C1NC(=O)C(c2ccc(-c3ccccc3)cc2)(N2CCN(c3ccc([N+](=O)[O-])cc3)CC2)C(=O)N1 [Ro 28-2653],IC50,MMP2,7 to 246 nM
same,IC50,MMP9,12 to 23 nM
same,IC50,MMP8; read-out: IC50 MMP8,15 nM
TIMP-1: endogenous tissue inhibitor of metalloproteinases; extensively glycosylated protein with a molecular mass of 28.5 kDa,inhibition of MMPs in general (in words),MMPs,inhibit most MMPs (except MMP-2 and -14)
same,inhibition of MMP8 (in words),MMP8,preferentially inhibits
"TIMP-4: endogenous tissue inhibitor of metalloproteinases, secreted predominantly in heart and brain tissue (protein, UniProt Q99727 30-224, looked up) Metalloproteinase inhibitor 4: CSCAPAHPQQHICHSALVIRAKISSEKVVPASADPADTEKMLRYEIKQIKMFKGFEKVKDVQYIYTPFDSSLCGVKLEANSQKQYLLTGQVLSDGKVFIHLCNYIEPWEDLSLVQRESLNHHYHLNCGCQITTCYTVPCTISAPNECLWTDWLLERKLYGYQAQHYVCMKHVDGTCSWYRGHLPLRKEFVDIVQP",inhibition of MMPs in general (in words),MMPs,inhibits all known MMPs
same,inhibition of MMP2 (in words),MMP2,preferentially inhibits
same,inhibition of MMP7 (in words),MMP7,preferentially inhibits
"TIMP-3: endogenous tissue inhibitor of metalloproteinases, typically bound to the ECM (protein, UniProt P35625 24-211, looked up) Metalloproteinase inhibitor 3: CTCSPSHPQDAFCNSDIVIRAKVVGKKLVKEGPFGTLVYTIKQMKMYRGFTKMPHVQYIHTEASESLCGLKLEVNKYQYLLTGRVYDGKMYTGLCNFVERWDQLTLSQRKGLNYRYHLGCNCKIKSCYYLPCFVTSKNECLWTDMLSNFGYPGYQSKHYACIRQKGGYCSWYRGWAPPDKSIINATDP",inhibition of MMP1 (in words),MMP1,inhibits the activity
same,inhibition of MMP3 (in words),MMP3,inhibits the activity
same,inhibition of MMP13 (in words),MMP13,inhibits the activity
same,inhibition of MMP2 (in words),MMP2,inhibits the activity
same,inhibition of TACE (in words),[1],normally inhibits
same,inhibition of MMP9 (in words),MMP9,inhibits the activity
